For one experiment, the system named is HCT-116. The experiment is described as follows: Antiproliferative activity against human HCT-116 cells assessed as reduction in cell viability after 24 hrs by CCK-8 assay. It is filed as functional, cell-based. The conditions noted are these: HCT-116, 24 h.
The next experiment relates to HeLa. The experiment is described as follows: Antiproliferative activity against human HeLa cells assessed as reduction in cell viability after 24 hrs by CCK-8 assay. The class given is functional, cell-based.
A further experiment has as its system HepG2. The experiment in a line: Antiproliferative activity against human HepG2 cells assessed as reduction in cell viability after 24 hrs by CCK-8 assay. The class given is functional, cell-based. As to conditions: HepG2, 24 h. For orientation: Tetrazolium dyes change colour on reduction, which living cells bring about.
Another experiment concerns MGC-803. The experiment is described as follows: Antiproliferative activity against human MGC-803 cells assessed as reduction in cell viability after 24 hrs by CCK-8 assay. The class given is functional, cell-based. As to conditions: MGC-803, 24 h.
Another experiment relates to MKN-45. The experiment is described as follows: Antiproliferative activity against human MKN-45 cells assessed as reduction in cell viability after 24 hrs by CCK-8 assay. The class given is functional, cell-based. The conditions noted are these: MKN-45, 24 h.
The test system of a further experiment is MCF7. The experiment in a line: Antiproliferative activity against human MCF7 cells assessed as reduction in cell viability after 24 hrs by CCK-8 assay. It is filed as functional, cell-based. As to conditions: MCF7, 24 h.
The nature of experiment [1]: Inhibition of Arylsulfatase (unknown origin) using potassium p-nitrophenyl sulfate as substrate incubated for 5 mins. Details: species or system Homo sapiens.
The next experiment concerns the target Tubulin (Sus scrofa, UniProt P02554+P02550). The experiment in a line: Inhibition of pig brain tubulin polymerization by spectrophotometric method. The class given is tissue-based.
The nature of experiment [2]: Inhibition of bovine brain tubulin polymerization by spectrophotometric method. The class given is tissue-based, Bos taurus.

A word on the IC50: it is the concentration that inhibits the measured activity by half. Turning to `COc1cc(/C=C\c2ccc(OC(F)F)c(OS(N)(=O)=O)c2)cc(OC)c1OC`, the IC50 worked out at 9.11 µM in the experiment on HCT-116; 7.82 µM in the experiment on HeLa; 4.81 µM with HepG2; 9 µM in the experiment with MGC-803; 12.5 µM in the experiment with MKN-45; 0.29 µM with MCF7. Further, the IC50 in [1] amounted to 4.64 µM; against Tubulin it was 72.6 µM.
Regarding `CCOc1ccc(/C=C\c2cc(OC)c(OC)c(OC)c2)cc1OS(N)(=O)=O`, the IC50 in the experiment on HCT-116 worked out at 0.55 µM; in the experiment with HeLa, 0.48 µM; in the experiment with HepG2 it was 0.41 µM; in the experiment with MGC-803, 0.27 µM; with MKN-45 it was 0.32 µM; in the experiment with MCF7, 0.3 µM. Moreover, the IC50 in [1] turned out to be 90.2 µM; on Tubulin it was 3.1 µM.
As to `C[C@]12CC[C@@H]3c4ccc(OS(N)(=O)=O)cc4CC[C@H]3[C@@H]1CCC2=O` [EMATE], the IC50 in the experiment with HCT-116 was found to be 0.9 µM; with HeLa it was 0.63 µM; with HepG2 it was 0.85 µM; with MGC-803, 0.48 µM; with MKN-45, 0.54 µM; in the experiment on MCF7, 0.07 µM. The IC50 in experiment [1] was found to be 5.01 µM; on Tubulin it was 25.9 µM.
Regarding `COc1cc(/C=C/c2cccc(OS(N)(=O)=O)c2)cc(OC)c1OC`, the IC50 in the experiment with HCT-116 stood at 40.3 µM; in the experiment on HeLa it was 19 µM; in the experiment with HepG2, 11.8 µM; in the experiment on MGC-803 it was 27 µM; with MKN-45, 25 µM; with MCF7 it was 27.4 µM.
For `COc1ccc(/C=C\c2cc(OC)c(OC)c(OC)c2)cc1NS(N)(=O)=O`, the IC50 in the experiment on HCT-116 stood at 3.29 µM; in the experiment with HeLa, 0.27 µM; in the experiment with HepG2, 0.75 µM; in the experiment on MGC-803 it was 0.5 µM; with MKN-45, 9.56 µM; with MCF7, 11.2 µM. In addition, the IC50 was above 100 µM in experiment [1] and 86.2 µM against Tubulin.
Consider `CCOc1ccc(/C=C/c2cc(OC)c(OC)c(OC)c2)cc1OS(N)(=O)=O`, for which the concentration for half-maximal inhibition (IC50) with HCT-116 came out at 9.12 µM; in the experiment with HeLa, 5.64 µM; with HepG2, 2.63 µM; in the experiment with MGC-803, 7.63 µM; with MKN-45 it was 8.05 µM; in the experiment with MCF7 it was 13.7 µM.
With `COc1ccc(/C=C\c2cc(OC)c(OC)c(OC)c2)cc1OS(=O)(=O)N(C)C`, the IC50 in the experiment with HCT-116 was determined as 0.37 µM; in the experiment with HeLa, 14.3 µM; in the experiment on HepG2, 9.96 µM; in the experiment with MGC-803 it was 7.14 µM; with MKN-45, 8.95 µM; in the experiment on MCF7, 11.1 µM. Also, the IC50 in [1] is above 100 µM; against Tubulin, 12.5 µM.
With `COc1ccc(/C=C/c2cc(OC)c(OC)c(OC)c2)cc1OS(N)(=O)=O`, the IC50 stood at 1.57 µM in the experiment with HCT-116; 4.5 µM in the experiment with HeLa; 0.87 µM in the experiment on HepG2; 2.98 µM in the experiment with MGC-803; 10.5 µM in the experiment with MKN-45; 5.44 µM with MCF7. In addition, the results for the IC50 (in [1]; against Tubulin) were 12.9 µM and 55.7 µM, respectively.
With `COc1ccc(CCc2cc(OC)c(OC)c(OC)c2)cc1OS(N)(=O)=O`, the IC50 with HCT-116 came out at 2.63 µM; in the experiment on HeLa, 9.04 µM; in the experiment with HepG2, 1.06 µM; with MGC-803, 3.61 µM; in the experiment with MKN-45 it was 11.9 µM; in the experiment with MCF7, 5.91 µM. The IC50 (in experiment [1]; against Tubulin) was above 100 µM each time.
With `COc1ccc(/C=C/c2cc(OC)c(OC)c(OC)c2)cc1NS(N)(=O)=O`, the IC50 in the experiment on HCT-116 was determined as 8.65 µM; in the experiment with HeLa, 0.38 µM; in the experiment with HepG2, 7.53 µM; with MGC-803 it was 6.19 µM; in the experiment on MKN-45 it was 18.9 µM; with MCF7 it was 17.1 µM.
Turning to `CNS(=O)(=O)Oc1cc(/C=C\c2cc(OC)c(OC)c(OC)c2)ccc1OC`, the IC50 in the experiment with HCT-116 stood at 0.0113 µM; in the experiment with HeLa, 0.0034 µM; in the experiment on HepG2, 0.0039 µM; in the experiment with MGC-803, 0.0037 µM; in the experiment with MKN-45, 0.0073 µM; in the experiment with MCF7, 0.53 µM. For the same compound, the IC50 is above 100 µM in experiment [1] and 1.8 µM on Tubulin.
For the compound `COc1ccc(/C=C\c2cc(OC)c(OC)c(OC)c2)cc1OS(N)(=O)=O`, the IC50 with HCT-116 worked out at 0.005 µM; with HeLa it was 0.0061 µM; in the experiment on HepG2, 0.0036 µM; with MGC-803, 0.0047 µM; in the experiment with MKN-45, 0.0095 µM; with MCF7 it was 0.11 µM. Further, the IC50 was determined as 6.16 µM in experiment [1] and 6.6 µM against Tubulin.
As to `CCOc1ccc(CCc2cc(OC)c(OC)c(OC)c2)cc1OS(N)(=O)=O`, the IC50 with HCT-116 turned out to be 10.2 µM; with HeLa, 2.93 µM; with HepG2, 3.65 µM; with MGC-803, 3.59 µM; with MKN-45, 7.67 µM; with MCF7 it was 14.8 µM.
Regarding `COc1cc(CCc2cccc(OS(N)(=O)=O)c2)cc(OC)c1OC`, the IC50 is 52.5 µM with HCT-116; 27.1 µM in the experiment with HeLa; 12 µM in the experiment on HepG2; 17.6 µM with MGC-803; 25.7 µM in the experiment with MKN-45; above 100 µM in the experiment with MCF7.
For `COc1ccc(/C=C\c2cc(OC)c(OC)c(OC)c2)cc1O` [COMBRETASTATIN A4], the IC50 in the experiment on HCT-116 was 0.0047 µM; in the experiment on HepG2, 0.0029 µM; in the experiment with MGC-803, 0.006 µM; with MKN-45, 0.0081 µM; with MCF7, 0.14 µM; in experiment [1], above 100 µM.
With `COc1cc2c(cc1O)CC[C@@H]1[C@@H]2CC[C@]2(C)[C@@H](O)CC[C@@H]12` [2-METHOXYESTRADIOL], in experiment [2], half-maximal inhibition (IC50) was put at 40 µM.
With `COc1cc(/C=C\c2cccc(OS(N)(=O)=O)c2)cc(OC)c1OC`, the IC50 in the experiment with HCT-116 is 9.5 µM; with HeLa, 16.3 µM; with HepG2 it was 9.36 µM; in the experiment on MGC-803 it was 8.53 µM; in the experiment with MKN-45, 15.3 µM; in the experiment on MCF7 it was 11.1 µM. In addition, the IC50 is 0.47 µM in [1] and above 100 µM against Tubulin.
On to `COc1cc(/C=C/c2ccc(OC(F)F)c(OS(N)(=O)=O)c2)cc(OC)c1OC`, for which the IC50 in the experiment with HCT-116 stood at 12.8 µM; in the experiment on HeLa, 8.42 µM; with HepG2 it was 5.54 µM; in the experiment with MGC-803 it was 9.24 µM; in the experiment on MKN-45, 13.8 µM; in the experiment on MCF7 it was 13.8 µM.
Take `COc1ccc(CCc2cc(OC)c(OC)c(OC)c2)cc1NS(N)(=O)=O`: the IC50 with HCT-116 was 30.6 µM; in the experiment on HeLa it was 2.93 µM; in the experiment with HepG2, 8.1 µM; in the experiment with MGC-803 it was 8.21 µM; in the experiment on MKN-45, 73.9 µM; in the experiment with MCF7, 20.1 µM.
Turning to `COc1cc(CCc2ccc(OC(F)F)c(OS(N)(=O)=O)c2)cc(OC)c1OC`, the IC50 was determined as 26.5 µM with HCT-116; 35.6 µM with HeLa; 15.9 µM in the experiment with HepG2; 23.3 µM in the experiment on MGC-803; 71.4 µM with MKN-45; 52.7 µM in the experiment with MCF7.

The values above are taken from ChEMBL document CHEMBL5120740, “Design, synthesis and biological evaluation of combretastatin A-4 sulfamate derivatives as potential anti-cancer agents” (RSC Med Chem, 2021).
